Experimental data as given in patent US9309222B2, “Phenyl linked quinolinyl modulators of RORγt” (Janssen Pharmaceutica NV, priority 2012, dated 2016).
Structures can show the parent of a compound that is named as a salt.

What was measured:
[1] = test system: IL-17 production by CD4 T cells; assay: Human Th17 assay (IL-17 production by CD4 T cells under Th17 differentiation conditions); format: cell-based; conditions: Homo sapiens, CD4+ T, 72 h, IL-17 in supernatant after 3 days
How it was run: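 Primary CD4+ T cells from healthy-donor PBMC, preincubated 1 h with titrated compound (0.2% DMSO), then activated with anti-CD3/CD28 beads plus anti-IL4, anti-IFNγ, IL1β, IL23, IL6, TGFβ and IL2.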

[2] = target: T1, human RORγt ligand binding domain (RORγt LBD) (Homo sapiens, UniProt P51449); assay: RORγt ThermoFluor assay (thermal shift, ligand binding affinity); conditions: estimated from concentration response of thermal shift
T1 construct: His-tag (N); TurboTEV protease cleavage site (ENLYFQG) (N); made in house; host or cells: E. coli (pHIS1, modified pET vector)
T1 sequence (P51449 with tags, fused parts or gaps): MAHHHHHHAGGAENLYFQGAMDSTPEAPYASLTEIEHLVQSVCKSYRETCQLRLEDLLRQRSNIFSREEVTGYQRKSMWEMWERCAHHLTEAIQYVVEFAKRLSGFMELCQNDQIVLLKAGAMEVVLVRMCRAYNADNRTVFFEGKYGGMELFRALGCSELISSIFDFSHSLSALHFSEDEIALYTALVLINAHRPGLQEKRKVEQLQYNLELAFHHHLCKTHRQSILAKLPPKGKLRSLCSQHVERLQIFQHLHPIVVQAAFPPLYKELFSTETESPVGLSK
How it was run: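 Thermal shift of 0.065 mg/mL RORγt with 60 μM 1,8-ANS in 100 mM Hepes pH 7.0, 10 mM NaCl, 2.5 mM GSH, 0.002% Tween-20. Compounds in 1:2 series from 10 mM DMSO stock. Dye fluorescence (500 nm emission) tracked versus temperature; ΔTm used to derive KD.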

human RORγt LBD = target: T2, human RORγt LBD (Homo sapiens, UniProt P51449); assay: RORγt reporter assay (GAL4-RORγt LBD luciferase in HEK293T cells); format: cell-based; conditions: for IC50: HEK293T cells, 24 hours compound treatment; for inhibition at 6 µM: HEK-293T, read-out: RORγt reporter Assay, % inhibition @ 6 μM, HEK293T cells, 6 μM compound
T2 construct: expressed in transfected cells
T2 sequence (P51449 258-518): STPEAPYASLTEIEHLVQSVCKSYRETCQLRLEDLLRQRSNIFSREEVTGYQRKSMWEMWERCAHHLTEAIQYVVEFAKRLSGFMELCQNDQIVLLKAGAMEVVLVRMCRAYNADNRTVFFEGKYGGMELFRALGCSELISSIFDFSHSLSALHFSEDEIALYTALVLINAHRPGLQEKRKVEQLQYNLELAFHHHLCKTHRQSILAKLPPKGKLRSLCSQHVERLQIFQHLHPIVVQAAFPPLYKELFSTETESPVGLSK
How it was run: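 HEK293T cells transiently co-transfected with pBIND (GAL4 DBD fused to wild-type human RORγt LBD, plus SV40-driven renilla luciferase) and pGL4.31 GAL4-responsive firefly luciferase reporter. Plated in phenol-red-free DMEM with 5% lipid-reduced FCS and treated with compound for 24 h. Firefly/renilla luminescence ratio plotted against compound concentration.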

SMILES | IC50 [1] [nM] | Kd [2] [nM] | IC50 (human RORγt LBD) [nM] | inhibition at 6 µM (human RORγt LBD) [%]
OC(c1ccc(Cl)nc1)(c1cccc(Cl)c1)c1ccc2nc(Cl)c(-c3ccccc3)c(Cl)c2c1 (centres unmarked) [Example 56, (3-Chlorophenyl)(6-chloropyridin-3-yl)(2,4-dichloro-3-phenylquinolin-6-yl)methanol] | 240 | 40 | 170 | 91
OC(c1ccc(Cl)nc1)(c1cccc(F)c1)c1ccc2nc(Cl)c(-c3ccccc3)c(Cl)c2c1 (centres unmarked) [Example 57, (6-Chloropyridin-3-yl)(2,4-dichloro-3-phenylquinolin-6-yl)(3-fluorophenyl)methanol] | 280 | 55 | 160 | 90
COc1ccc(C(O)(c2cccnc2)c2ccc3nc(N(C)C)c(-c4ccccc4)c(Cl)c3c2)cc1 (centres unmarked) [Example 62, [4-Chloro-2-(dimethylamino)-3-phenylquinolin-6-yl](4-methoxyphenyl)pyridin-3-ylmethanol•TFA] | 700 | 420 | 250 | 98
COCCN(C)c1nc2ccc(C(O)(c3ccncc3)c3cncn3C)cc2c(Cl)c1-c1ccccc1 (centres unmarked) [Example 63, {4-Chloro-2-[(2-methoxyethyl)(methyl)amino]-3-phenylquinolin-6-yl}(1-methyl-1H-imidazol-5-yl)pyridin-4-ylmethanol•TFA] | 63 | 15 | 8.6 | 106
COc1cccc(C(O)(c2ccc(Cl)nc2)c2ccc3nc(Cl)c(-c4ccccc4)c(Cl)c3c2)c1 (centres unmarked) [Example 65, (6-Chloropyridin-3-yl)(2,4-dichloro-3-phenylquinolin-6-yl)(3-methoxyphenyl)methanol] | 190 | 200 | 160 | 103
Cn1cncc1C(O)(c1ccnc(Cl)c1)c1ccc2nc(Cl)c(-c3ccccc3)c(Cl)c2c1 (centres unmarked) [Example 66, (2-Chloropyridin-4-yl)(2,4-dichloro-3-phenylquinolin-6-yl)(1-methyl-1H-imidazol-5-yl)methanol•TFA] | 59 | 1.7 | 10 | 105
COc1cc(C(O)(c2ccc3nc(Cl)c(-c4ccccc4)c(Cl)c3c2)c2cncn2C)ccn1 (centres unmarked) [Example 68, (2,4-Dichloro-3-phenylquinolin-6-yl)(2-methoxypyridin-4-yl)(1-methyl-1H-imidazol-5-yl)methanol•TFA] | 48 | 3.9 | 5.8 | 103
COc1cccc(C(O)(c2ccc(C)nc2)c2ccc3nc(Cl)c(-c4ccccc4)c(Cl)c3c2)c1 (centres unmarked) [Example 69, (2,4-Dichloro-3-phenylquinolin-6-yl)(3-methoxyphenyl)(6-methylpyridin-3-yl)methanol•TFA] | 610 | 300 | 150 | 99
Cc1ccc(C(O)(c2cccc(Cl)c2)c2ccc3nc(Cl)c(-c4ccccc4)c(Cl)c3c2)cn1 (centres unmarked) [Example 70, (3-Chlorophenyl)(2,4-dichloro-3-phenylquinolin-6-yl)(6-methylpyridin-3-yl)methanol•TFA] | 630 | 770 | 47 | 95
Cc1ccc(C(O)(c2cccc(F)c2)c2ccc3nc(Cl)c(-c4ccccc4)c(Cl)c3c2)cn1 (centres unmarked) [Example 71, (2,4-Dichloro-3-phenylquinolin-6-yl)(3-fluorophenyl)(6-methylpyridin-3-yl)methanol•TFA] | 690 | 310 | 82 | 94
Cn1cncc1C(O)(c1ccncc1)c1ccc2nc(Cl)c(-c3ccccc3)c(N3CCC(O)CC3)c2c1 (centres unmarked) [Example 73, 1-{2-Chloro-6-[hydroxy(1-methyl-1H-imidazol-5-yl)pyridin-4-ylmethyl]-3-phenylquinolin-4-yl}piperidin-4-ol•TFA] | 1200 | 18 | 360 | 88
